Consider ten molecules from patent US10961258B2, “Heterocyclic amides as kinase inhibitors” (GLAXOSMITHKLINE INTELLECTUAL PROPERTY DEVELOPMENT LIMITED, priority 2015, dated 2021).

Assay [1] deals with human monocytic leukemia U937 cells. Description: U937 necroptosis assay (TNFα + QVD, Cell Titer-Glo viability). Type of assay: cell-based. The settings on record: U-937, QVD 50 uM, TNFα 100 ng/ml overnight, cellular ATP by Cell Titer-Glo. On the procedure:
The efficacy of RIP1 inhibitors can be tested […] in vitro using a human monocytic leukemia U937 cells in a necroptosis assay (He, S. et al. 2009. Cell 137(6): 1100-1111). Cells were maintained in RPMI supplemented with 10% fetal bovine serum 100 U/ml penicillin, 100 ug/ml streptomycin. For the assay, cells were suspended at 5e5 cells/ml in phenol red free RPMI supplemented with 1% fetal bovine serum, 100 U/ml penicillin, 100 ug/ml streptomycin. Thirty-five (35) ul of the cell suspension was aliquotted into a white, half area assay plate. Five (5) ul each of QVD (final concentration 50 uM) or compound was added to the cells and incubated at 37° C. for 30 min to 1 h. Following the incubation, 5 ul TNFα (final concentration 100 ng/ml) was added to the cells and the samples were incubated overnight. The next day, cellular levels of ATP was determined using the Cell Titer-Glo Luminescent Cell Viability kit (available from Promega Corporation, Madison, Wis., USA). Viability was measured by quantitating cellular levels of ATP using the Cell Titer-Glo kit. All data are shown as means±standard deviation of the mean.
A general note: ATP-based viability assays read luminescence as a measure of living cells.

In a further assay the target is T1, GST-RipK1(1-375) (Homo sapiens, UniProt Q13546).
T1 construct: GST-RipK1 Preparation: His.GST.TEV.RIPK1 1-375; His (N); TEV cleavage site (N); made in house; host or cells: Spodoptera frugiperda (Sf9) insect cells, baculovirus
T1 sequence (Q13546 1-375): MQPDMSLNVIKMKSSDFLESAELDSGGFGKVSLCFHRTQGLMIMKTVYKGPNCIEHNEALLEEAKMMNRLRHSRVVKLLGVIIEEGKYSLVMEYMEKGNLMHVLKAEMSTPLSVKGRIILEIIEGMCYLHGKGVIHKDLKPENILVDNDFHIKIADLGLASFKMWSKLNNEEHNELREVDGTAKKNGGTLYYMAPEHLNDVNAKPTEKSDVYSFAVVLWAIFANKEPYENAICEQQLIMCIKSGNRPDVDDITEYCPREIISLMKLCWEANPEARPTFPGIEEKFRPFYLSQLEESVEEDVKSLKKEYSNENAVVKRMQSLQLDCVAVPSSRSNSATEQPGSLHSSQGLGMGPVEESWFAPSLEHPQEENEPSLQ
Description: Fluorescent polarization based binding assay at the ATP binding pocket of RIP1. To be noted: FP competition with fluorescently labeled ATP competitive ligand 5 nM; GST-RipK1(1-375) 10 nM; mean of minimum 2 experiments. The method, then: A fluorescent polarization based binding assay was developed to quantitate
interaction of novel test compounds at the ATP binding pocket of RIP 1, by competition with a fluorescently labeled ATP competitive ligand. GST-RipK1(1-375) was purified from a Baculovirus expression system and was used at a final assay concentration of 10 nM. A fluorescent labeled ligand (14-(2-{[3-({2-{[4-(cyanomethyl)phenyl]amino}-6-[(5-20 cyclopropyl-1H-pyrazol-3-yl)amino]-4-pyrimidinyl}amino)propyl]amino}-2-oxoethyl)16,16,18,18-tetramethyl-6,7,7a,8a,9,10,16,18-octahydrobenzo[2″,3″ ]indolizino[8″,7″:5′,6′]pyrano[3′,2′:3,4]pyrido[1,2-a]indol-5-ium-2-sulfonate (prepared as described in WO2014125444, the disclosure of which is incorporated by reference herein) was used at a final assay concentration of 5 nM. Both the enzyme and ligand were prepared in solutions in 50 mM HEPES pH7.5, 10 mM 25 NaCl, 50 mM MgCl2, 0.5 mM DTT, and 0.02% CHAPS. Test compounds were prepared in neat DMSO and 100 nL was dispensed to individual wells of a multiwell plate. Next, 5 ul GST-RipK1(1-375) was added to the test compounds at twice the final assay concentration, and incubated at room temperature for 10 minutes. Following the incubation, 5 ul of the fluorescent labeled ligand solution, was added to each reaction, at twice the final assay concentration, and incubated at room temperature for at least 15 minutes. Finally, samples were read on an instrument capable of measuring fluorescent polarization. Test compound inhibition was expressed as percent (%) inhibition of internal assay controls. For concentration response experiments, normalized data were fit and pIC50s determined using conventional techniques. The pIC50s are averaged to determine a mean value, for a minimum of 2 experiments.
The RIPK 1 gene [receptor (TNFRSF)-interacting serine-threonine kinase 1] was cloned from human adrenal gland cDNA. Primers were designed from the reference sequence NM_003804.3 with an added CACC Kozak directional tag for cloning into pENTR/TEV/D-TOPO. Gateway® LR cloning was used to site-specifically recombine RIPK1 downstream to an N-terminal HisGST contained within the destination vector pDEST8-His.GST according to the protocol described by Invitrogen.

Bounds are passed on as bounds.

Broadly, the IC50 is the concentration that inhibits the measured activity by half. Regarding `Cc1sc(C)c2c1CCC(NC(=O)c1nnc(Cc3ccccc3)[nH]1)C(=O)N2` (stereo not shown) [Example 1, 5-Benzyl-N-(6,8-dimethyl-2-oxo-2,3,4,5-tetra hydro-1H-thieno[3,4-b]azepin-3-yl)-4H-1,2,4-triazole-3-carboxamide], the IC50 in assay [1] was 398 nM; on GST-RipK1(1-375), 100 nM.
In the same order, the values of `O=C(NC1CCc2sccc2NC1=O)c1nnc(Cc2ccccc2)[nH]1` (stereo not shown) [Example 2, 5-Benzyl-N-(5-oxo-5,6,7,8-tetrahydro-4H-thieno[3,2-b]azepin-6-yl)-4H-1,2,4-triazole-3-carboxamide] are 794 nM and 251 nM.
For `Cc1cc2c(s1)CCC(NC(=O)c1nnc(Cc3ccccc3)[nH]1)C(=O)N2` (stereo not shown) [Example 3, 5-Benzyl-N-(2-methyl-5-oxo-5,6,7,8-tetrahydro-4H-thieno[3,2-b]azepin-6-yl)-4H-1,2,4-triazole-3-carboxamide], the IC50 is 631 nM in assay [1] and 79.4 nM at GST-RipK1(1-375).
For the molecule `Cn1ccc2c1CCC(NC(=O)c1nnc(Cc3ccccc3)[nH]1)C(=O)N2` (stereo not shown) [Example 4, 5-Benzyl-N-(1-methyl-5-oxo-1,4,5,6,7,8-hexahydropyrrolo[3,2-b]azepin-6-yl)-4H-1,2,4-triazole-3-carboxamide], the IC50 in assay [1] is 1260 nM; at GST-RipK1(1-375), 794 nM.
In the same order, the values of `Cc1cn(C)c2c1NC(=O)C(NC(=O)c1nnc(Cc3ccccc3)[nH]1)CC2` (stereo not shown) [Example 5, 5-Benzyl-N-(1,3-dimethyl-5-oxo-1,4,5,6,7,8-hexahydropyrrolo[3,2-b]azepin-6-yl)-4H-1,2,4-triazole-3-carboxamide] are above 10000 nM and 631 nM.
For `O=C(NC1CCc2[nH]c3ccccc3c2NC1=O)c1nnc(Cc2ccccc2)[nH]1` (stereo not shown) [Example 6, 5-Benzyl-N-(2-oxo-1,2,3,4,5,6-hexahydroazepino[3,2-b]indol-3-yl)-4H-1,2,4-triazole-3-carboxamide], the results for the IC50 (in assay [1]; on GST-RipK1(1-375)) were 251 nM and 39.8 nM, respectively.
The corresponding values for `Cc1nsc2c1N(C)C(=O)[C@@H](NC(=O)c1nnc(Cc3ccccc3)[nH]1)CN2` [Example 7, (S)-5-Benzyl-N-(3,4-dimethyl-5-oxo-5,6,7,8-tetrahydro-4H-isothiazolo[4,5-b][1,4]diazepin-6-yl)-4H-1,2,4-triazole-3-carboxamide] are 15.8 nM and 20 nM.
In the same order, the values of `O=C(N[C@H]1CSc2cccn2NC1=O)c1nnc(Cc2ccccc2)[nH]1` [Example 8, (R)-5-Benzyl-N-(4-oxo-2,3,4,5-tetrahydropyrrolo[2,1-b][1,3,4]thiadiazepin-3-yl)-4H-1,2,4-triazole-3-carboxamide] are 79.4 nM and 25.1 nM.
The corresponding values for `CN1C(=O)[C@@H](NC(=O)c2nnc(Cc3ccccc3)[nH]2)CSc2cccn21` [Example 9, (R)-5-Benzyl-N-(5-methyl-4-oxo-2,3,4,5-tetrahydropyrrolo[2,1-b][1,3,4]thiadiazepin-3-yl)-4H-1,2,4-triazole-3-carboxamide] are 5.01 nM and 10 nM.
`O=C(NC1CCc2oc3c(c2NC1=O)CCCC3)c1nnc(Cc2ccccc2)[nH]1` (stereo not shown) [Example 10, 5-benzyl-N-(2-oxo-2,3,4,5,7,8,9,10-octahydro-1H-benzofuro[3,2-b]azepin-3-yl)-4H-1,2,4-triazole-3-carboxamide] gave a half-inhibitory concentration (IC50) on GST-RipK1(1-375) of 794 nM.
